Measured values as given in patent US8802439B2, “Methods for enhancing infectivity of retroviruses” (priority 2009, dated 2014).

Key:
HIV-1 [1] = assay: Single-round infectivity on TZM-bl cells of HIV-1 produced in Pin1-inhibited 293T cells (Galacton-Star galactosidase assay); type: cell-based; details: for boost of infectivity: TZM-bl target cells
Text: Viral inocula from transfections above were normalized to equal virion particle number via p24 ELISA and used to infect target CD4^+ HeLa cells (1×10^5 TZM-bl). Infectivity was scored using the Galacton-Star enzymatic galactosidase activity assay, and infectivity quantified by relative […] units (R.F.U).
Plasmids: Laboratory-adapted provirus NL4.3, and the CypA-independent NL4.3 CAi2 were kindly provided by Akio Adachi (Department of Virology, Institute of Health Biosciences, The University of Tokushima Graduate School, JAPAN). Mutant R9G89V was a gift from P. Gallay (TSR1) as were NL4.3-GFP and SIV-GFP (originally Dana Gabuzda, Dana Farber Cancer Institute). NL4.3 A92E was kindly provided by W. Phares (Genetics Unit, Novartis Forschungsinstitut, Vienna, Austria). R9Δgp160 plasmid clone was kindly provided by C. Aiken (Vanderbilt Medical Center). VSV-G (CMV-VSV-G) was kindly provided by D. Trono (École Polytechnique Fédérale de Lausanne). Both bMLV-GFP and nMLV-GFP in the form of pCIG3-N, pCIG3-B as well as pCNCG were kindly provided by J. Stoye (National Institute for Medical Research, UK). Isomerase mutant Pin1 (pFLAG-Pin1R68,69A) and WW-domain mutant Pin1 (pFLAG-Pin1 W34A) were constructed by site-directed mutagenesis. Pseudotyping experiments were performed using DNA constructs encoding the VSV-G generously provided by D. Trono. Human Pin1 was cloned into pFLAG (Sigma-Aldrich) making pFLAG-Pin1. Viruses were produced by transfection of 293T cells using either GeneJuice (Novagen) or calcium phosphate. […] All viruses were harvested 24-48 hours post-transfection and filtered (0.2-μM filter, Steriflip Millipore). HIV-1 viruses were normalized by p24 ELISA (Alliance HIV-1 p24 Antigen ELISA Kit, Perkin Elmer), and/or were normalized via the EnzChek® Reverse Transcriptase Assay Kit (E-22064) (Molecular Probes).
(§1) Infection assays for retrovirus: Single-round infections: CD4^+ TZM-bl 100,000 cells/well/mL were seeded onto 24-well plates 24 hours prior to infection. These cells were infected in quadruplicate to 24-well plates. Infectivity was scored using an enzymatic galactosidase activity assay. Specifically, infected TZM-bl cells were washed and lysed, and 20 μl of lysate was transferred to a 96-well plate for detecting β-galactosidase activity. 100 μl of reaction buffer Galacton-Star substrate (Applied Biosystems, Bedford, Mass.), diluted 1:50, was added to 20 μl of lysate, and the light emission was measured over 1 second in a microplate luminometer after 30 minutes incubation. For human PBMC infections, cells were exposed to 10 ng of wild-type virus for 6 hours, washed, and split into two flasks: one with 10 μM PiB added on day 0 and 3, and one without PiB. Replication was monitored by p24 ELISA. For measuring infectivity of GFP-virus, 50,000 TZMb1, sMAGI, OMK, Vero, BSC-1 and CV-1 cells/well/mL were seeded onto 6-well plates respectively 24 hours prior to infection. Viruses were used to infect in duplicate wells, incubated for 48 hours, washed with PBS, trypsinized, fixed in 1% formaldehyde and subsequently analyzed by fluorescence-activated cell sorting (FACS) for percentage cells infected.
(§2) To examine a potential role for Pin1 in HIV-1 replication we used two inhibitors of Pin1: juglone and PiB. […] 293T cells were transfected with a proviral construct encoding wild-type HIV-1 in the presence or absence of PiB or juglone.

HIV-1 [2] = assay: HIV-1 replication in human PBLs monitored by p24 ELISA; type: cell-based
Procedure: (E) Replication kinetics of wild-type HIV-1 in human PBLs is enhanced by Pin1 isomerase inhibitors. 2×10^6 PBLs from patient donors were challenged with HIV-1 in the presence (lighter squares, top) or absence (black circles, bottom) of 10 μM PiB, which was added again at day 3 to maintain drug pressure. Replication was monitored by sampling virus concentration in supernatants via p24 ELISA.
Cell Lines and PBMCs: The TZM-bl cell line was obtained through the NIH AIDS Research and Reference Reagent Program, Division of AIDS, NIAID, NIH: TZM-bl from Dr. John C. Kappes, Dr. Xiaoyun Wu and Tranzyme Inc. The sMAGI cell line was obtained through the AIDS Research and Reference Reagent Program, Division of AIDS, NIAID, NIH: CMMT-CD4-LTR-β-Gal (sMAGI) from Dr. Julie Overbaugh. African green kidney BS-C-1 CCL-26, African green kidney CV-1 CCL-70, African green kidney Vero CCL-81, owl kidney OMK(637-69) CRL-1556 and 293T cell lines were obtained from ATCC. To generate PBMCs, human blood from normal healthy donors (General Clinical Research Center, TSR1) was fractionated via gradient centrifugation through histopaque-1077 (Sigma-Aldrich). Peripheral blood lymphocytes (PBLs) were cultured in RPMI supplemented with 20% FBS, 20 U ml^−1 IL-2.
as §1, with “infected. […]” for “infected.”
PBLs from human donors were challenged with HIV-1 in the presence (squares) or absence (circles) of 10 μM PiB. Replication was monitored by sampling virus concentration in supernatants via p24 ELISA. […]

293T cells = details: cell count and trypan blue staining (data not shown)
Text: as §2

Pin1 PPIase = Pin1 PPIase (Homo sapiens, UniProt Q13526); details: cited from earlier work
[3] = cited from earlier work
[4] = produced in 293T with 10 μm PiB, TZMb1

Chain of Pin1 PPIase (Q13526 whole entry): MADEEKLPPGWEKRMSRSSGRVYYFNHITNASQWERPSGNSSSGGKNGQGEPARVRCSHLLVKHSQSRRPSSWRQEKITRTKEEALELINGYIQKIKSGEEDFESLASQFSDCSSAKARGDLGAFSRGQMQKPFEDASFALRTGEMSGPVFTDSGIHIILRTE

Q: With CCOC(=O)CN1C(=O)c2ccc3c4c(ccc(c24)C1=O)C(=O)N(CC(=O)OCC)C3=O [PiB, diethyl-1,3,6,8-tetrahydro-1,3,6,8-tetraoxobenzo[lmn][3,8]phenanthroline-2,7-diacetate] as the compound, how does the “HIV-1 infectivity after treatment of target cells” value (HIV-1 [1]; TZM-bl pre-incubated with 0, 2, 10 μM PiB for 24 hours before VSV-G pseudotyped virus, read 48 hours post-infection) read?
A: no effect on HIV-1 infectivity

Q: What about the “infectivity of VSV-G pseudotyped HIV-1 lacking gp160 (NL4.3 Δenv)” value (HIV-1 [1]; produced in 293T in the presence of 2 μM or 10 μM PiB, TZM-bl) of the same compound?
A: enhanced

Q: What about the “boost of wild-type NL4.3 virus in the FIG. 3H experiment” value (HIV-1 [1]; [4]) of the same compound?
A: rather mild boost

Q: What about the “infectivity of CypA-deficient R9G89V mutant HIV-1” value (HIV-1 [1]; [4]) of the same compound?
A: dramatically boosted

Q: What about the boost of infectivity (HIV-1 [1]; viruses produced in 293T in the presence of 2.0 μM inhibitor) of the same compound?
A: 2 fold

Q: What about the boost of infectivity (HIV-1 [1]; viruses produced in 293T in the presence of 10 μM PiB) of the same compound?
A: 8 fold

Q: What about the “replication kinetics of wild-type HIV-1 in human PBLs” value (HIV-1 [2]; 10 μM PiB, added again at day 3) of the same compound?
A: enhanced

Q: What about the “elevated replication kinetics versus untreated” value (HIV-1 [2]; human PBLs, 10 μM PiB, after six days, average of two donors) of the same compound?
A: seven fold

Q: What about the “increase in infectivity versus untreated” value (HIV-1 [2]; human PBLs, day 5) of the same compound?
A: seven-fold

Q: What about the “p24 in supernatant at peak replicative differential” value (HIV-1 [2]; human PBLs, day 5, untreated 0.2 μg/ml) of the same compound?
A: 1.4 µg/mL

Q: What about the producer cell viability (293T cells) of the same compound?
A: no effect

Q: And the “IC50 of Pin1 PPIase activity in vitro” value (Pin1 PPIase)?
A: low mM

Q: And the “stability at 37°” value ([3]; 37°)?
A: instability

Q: And the “stability in aqueous solution” value ([3]; aqueous solution)?
A: breaks down in aqueous solution
